Experiments:
Format in all cases: in vivo, human
[1] = Pharmacokinetic analysis of compound 23 plasma concentrations in patients (LC-MS/MS, non-compartmental); settings: for AUC(0-t) / Cmax / half-life / Tmax: human, plasma; for AUC(0-t) / Cmax: geometric mean; for half-life: mean; for Tmax: median
Protocol: Patients were administered doses of compound 23 ranging from 5 to 50 mg once daily. Plasma concentrations of compound 23 were quantified using acetonitrile precipitation and LC-MS/MS. The peak area of the product ion of the analyte was measured against the peak area of the product ion of the stable label internal standard. A calibration curve spanning the curve range and containing at least six conentrations in duplicate was used to quantify the analyte concentration. The retention times of the analyte and internal standard are approximately 1.5 minutes. PK analyses were donucted using non-compartmental analyses to obtain PK parameters. […] Patients were administered doses of compound 23 ranging from 5 to 50 mg once daily. Plasma concentrations of compound 23 were quantified using acetonitrile precipitation and LC-MS/MS. The peak area of the product ion of the analyte was measured against the peak area of the product ion of the stable label internal standard. A calibration curve spanning the curve range and containing at least six conentrations in duplicate was used to quantify the analyte concentration. The retention times of the analyte and internal standard are approximately 1.5 minutes. PK analyses were donucted using non-compartmental analyses to obtain PK parameters. […] PK data are provided below (Cmax and AUC0-last are presented as geometric mean (geometric %C V); Tmax is presented as median (range); t1/2 is presented as mean (% CV).

[2] = Adverse events after oral administration of compound 23 to patients
Protocol: The nausea and vomiting symptoms were mitigated when a single oral (versus other routes of adminstration such as intravenous) dose of 5-HT3 antagonist was administered 30-60 minutes prior to the compound 23 dosing. […] The adverse events (e.g., symptoms include nausea, vomiting, headache, hypotension, tachycardia, bradycardia, among others) were resolved within 24 hours prior to the next dose. The nausea and vomiting were controlled by serotonin (5-HT3) receptor blockers, ondansetron and granisetron.

[3] = tested on: patient's nausea and vomiting symptoms; assay: Antiemetic given prior to compound 23: control of nausea and vomiting; settings: for effect on emetic symptoms (nausea and vomiting): single oral dose 30-60 minutes prior to compound 23 dosing
Protocol: Prior to administration of compound 23, the antiemetic was administered as outlined below. Example 1: ondansetron via IV: 8 mg or 0.15 mg/kg as single dose; maximum dose of 16 mg/dose. Example 1B: ondansetron via oral: 8 mg up to twice daily. In this example, the patient was weaned off ondansetron via oral after two weeks. […] Example 2: granisetron via IV: 1 mg or 10 mcg/kg as a single dose. Example 2B granisetron via oral: 2 mg as a single dose. In this example, the patient was weaned off oral granisetron after four weeks. […] Example 2C: granisetron via SUBQ: 10 mg as single dose. Example 2D: granisetron via transdermal: apply one patch. Example 5: metoclopramide, a dopamine antagonist, via oral: 10 mg 30 minutes prior to the adminstration of compound 23. […] Example 6: diphenhydramine, a histamine antagonist, via oral or parental: 25 mg or 50 mg 30 minutes prior to the adminstration of compound 23.

5-HT = 5-HT levels in the local gut after compound 23; settings: after administration of compound 23
[4] = Cycle 1 Day 1, 5 mg once daily (n = 1)
[5] = Cycle 1 Day 1, 15 mg once daily (n = 9)
[6] = Cycle 1 Day 1, 25 mg once daily (n = 6)
[7] = Cycle 1 Day 1, 50 mg once daily (n = 2)
[8] = 25 mg and 50 mg single daily dose administered fasting

## C[C@H]1CCCN(Cc2cc3c(c(C(F)(F)F)c2)CN(c2cccc([C@]4(c5nncn5C)C[C@@H](C)C4)c2)C3=O)C1 [Compound 23]
[1]; 5 to 50 mg once daily
  accumulation upon repeat daily dosing: no accumulation
  dose proportionality of exposures: dose-proportional increase in exposures
[1]; [4]
  AUC(0-t): 26.2 ng·h/mL
  Cmax: 4.35 ng/mL
  half-life: 7.72 h
  Tmax: 2 h
[1]; [5]
  AUC(0-t): 129 ng·h/mL
  Cmax: 16.2 ng/mL
  half-life: 7.14 h
  Tmax: 2 h
[1]; [6]
  AUC(0-t): 201 ng·h/mL
  Cmax: 30.1 ng/mL
  half-life: 6.82 h
  Tmax: 1.5 h
[1]; [7]
  AUC(0-t): 502 ng·h/mL
  Cmax: 79.2 ng/mL
  half-life: 5.88 h
  Tmax: 2.5 h
[2]; [8]
  adverse events induced: signficant events of nausea, vomiting, synocope, tachycardia, hypotension, and bradycardia
  time to onset of adverse events: ≤ 2 h
[2]; nausea, vomiting, headache, hypotension, tachycardia, bradycardia, prior to the next dose
  time to resolution of adverse events: ≤ 24 h
[3]; daily compound 23 after patient weaned off oral granisetron after four weeks
  need for antiemetic after weaning: without the need for granisetron
[3]; daily compound 23 after patient weaned off oral ondansetron after two weeks
  need for antiemetic after weaning: without the need for ondanesetron
5-HT
  levels of 5-HT in the local gut: increased levels of 5-HT in the local gut

## CN(C)CCOC(c1ccccc1)c1ccccc1 [diphenhydramine]
[3]; oral or parenteral 25 mg or 50 mg 30 minutes prior to compound 23
  control of nausea and vomiting symptoms: did not control the patient's nausea and vomiting sympotms

## CN1C2CCCC1CC(NC(=O)c1nn(C)c3ccccc13)C2 (stereo not shown) [granisetron]
[3]
  effect on emetic symptoms (nausea and vomiting): reduced emetic symptoms

## CCN(CC)CCNC(=O)c1cc(Cl)c(N)cc1OC [metoclopramide]
[3]; oral 10 mg 30 minutes prior to compound 23
  control of nausea and vomiting symptoms: did not control the patient's nausea and vomiting sympotms

## Cc1nccn1CC1CCc2c(c3ccccc3n2C)C1=O (stereo not shown) [ondansetron]
[3]
  effect on emetic symptoms (nausea and vomiting): reduced emetic symptoms
